Test results: patent US20230150920A1, “SALTS AND SOLID FORMS OF 4-BROMO-2,5-DIMETHOXYPHENETHYLAMINE” (priority 2021, published 2023)
Entries after “also recorded” stand apart in the source; their conditions may differ. Read-outs that look alike come from different tables or passages of the source.

How the values were obtained:
[1] = Dynamic vapor sorption/desorption (DVS), hygroscopicity; type: physicochemical; details: for Water uptake (5-85% RH) %: 5-85% RH part of sorption; for Water uptake (85-95% RH) %: 85-95% RH part of sorption; for Hygroscopicity: grade in words, from DVS; for Water uptake (5-95% RH) %: total
Description: The active pharmaceutical ingredient (API), 4-bromo-2,5-dimethoxyphenethylamine hydrochloride, is characterized to evaluate its physical properties. The evaluation is performed by X-ray powder diffraction (XRPD), polarized light microscopy (PLM), differential scanning calorimetry (DSC), thermogravimetry (TG), dynamic vapor sorption/desorption (DVS), and/or solubility testing in organic solvents, water, and mixed solvent systems. XRPD data are used to assess crystallinity. PLM data are used to evaluate crystallinity and particle size/morphology. DSC data are used to evaluate melting point, thermal stability, and crystalline form conversion. TG data are used to evaluate if the API is a solvate or hydrate, and to evaluate thermal stability. DVS data are used to evaluate hygroscopicity of the API and if hydrates can be formed at high relative humidity.
The form characterized in FIGS. 1 and 2 is designated as Form A herein. […] A sharp endotherm at 238° C. in the DSC thermogram is attributed to melting.

[2] = Deliquescence at 75% RH at ambient temperature; type: physicochemical
[3] = Dynamic vapor sorption (DVS) with XRPD of the post-DVS sample; type: physicochemical; details: for hygroscopicity based on DVS data / moisture gain by DVS / moisture gain by DVS, equivalent moles of water: 25° C.; for hygroscopicity based on DVS data: 5 to 95% RH; for moisture gain by DVS / moisture gain by DVS, equivalent moles of water: adsorption 5 to 95% RH; for post-DVS XRPD result: XRPD of the post-DVS sample; for DVS desorption weight loss, 85-5% RH: desorption 85-5% RH; for DVS desorption weight loss, 95-85% RH: desorption 95-85% RH; for behaviour on desorption / form change by XRPD of post-DVS sample: desorption 95 to 5% RH; for DVS sorption weight gain, 5-85% RH: sorption 5-85% RH; for DVS sorption weight gain, 85-95% RH: sorption 85-95% RH; for DVS desorption weight loss, 95-5% RH: desorption 95-5% RH; for DVS sorption weight gain, 5-95% RH: sorption 5-95% RH
Description: Dynamic Vapor Sorption (DVS) analysis was carried out using a TA Instruments Q5000 Dynamic Vapor Sorption analyzer. The instrument was calibrated with standard weights and a sodium bromide standard for humidity. Approximately 10-25 mg of sample was loaded into a metal-coated quartz pan for analysis. The sample was analyzed at 25° C. with a maximum equilibration time of one hour in 10% relative humidity (RH) steps from 5 to 95% RH (adsorption cycle) and from 95 to 5% RH (desorption cycle). The movement from one step to the next occurred either after satisfying the equilibrium criterion of 0.01% weight change or, if the equilibrium criterion was not met, after one hour. The percent weight change values were calculated using Microsoft Excel.
(§1) The DVS analysis was carried out using a TA Instruments Q5000 Dynamic Vapor Sorption analyzer. 13.5 mg of sample was loaded into a metal-coated quartz pan for analysis. After equilibration to 5% relative humidity (RH), the sample was analyzed at 25° C. in 10% RH steps from 5 to 95% RH (adsorption cycle) and from 95 to 5% RH (desorption cycle). The movement from one step to the next occurred either after satisfying the equilibrium criterion of 0.01% weight change in 5 minutes or, if the equilibrium criterion was not met, after 90 minutes. The percent weight change values are calculated using Microsoft Excel®.
as §1, with “DVS analyses were” for “DVS analysis was”, “analyzer. Approximately 7-11” for “analyzer. 13.5”, “equilibration at” for “equilibration to”, “values were” for “values are”
as §1, with “analyzer. Approximately 2” for “analyzer. 13.5”, “equilibration at” for “equilibration to”, “values were” for “values are”

[4] = Slurry
Description: The sample was then centrifuged, while still warm, and the mother liquor was decanted. The isolated solids were air-dried and analyzed by XRPD.

[5] = several days at 75% RH at ambient temperature

| Molecule | Hygroscopicity: weight gain ([1]; <85% RH) | Hygroscopicity: weight gain ([1]; >85% RH) | Hygroscopicity [1] | Water uptake (5-95% RH) % ([1]; 5-95% RH) | deliquescence ([2]; at 75% RH) | deliquescence [2, 5] | hygroscopicity based on DVS data [3] | moisture gain by DVS [3] | moisture gain by DVS, equivalent moles of water [3] | post-DVS XRPD result [3] | DVS desorption weight loss, 85-5% RH [3] | DVS desorption weight loss, 95-85% RH [3] | behaviour on desorption / form change by XRPD of post-DVS sample [3] | DVS desorption total loss [3] | DVS sorption weight gain, 5-85% RH [3] | DVS sorption weight gain, 85-95% RH [3] | DVS sorption total gain [3] | Hygroscopicity: weight gain ([1]; 5-95% RH) | DVS desorption weight loss, 95-5% RH [3] | DVS sorption weight gain, 5-95% RH [3] | further results |
| --- | --- | --- | --- | --- | --- | --- | --- | --- | --- | --- | --- | --- | --- | --- | --- | --- | --- | --- | --- | --- | --- |
| 2C-B glycolate | RH: 0.9% | RH: 2.7% gain | Mod. hygroscopic; <85% | 3.6% | Did not deliquesce | not observed | moderately hygroscopic | 3.6% | 0.7 mol | Consistent with Glycolate | 85-5% RH: 1.1% loss | 95-85% RH: 2.6% loss | form change is not apparent by XRPD | Total loss: 3.7% | 5-85% RH: 0.9% gain | 85-95% RH: 2.7% gain | Total gain: 3.6% | – | – | – | Water uptake (5-85% RH) % [1]: 0.9%; Water uptake (85-95% RH) % [1]: (5-85), 2.7 (85-95) %; moisture gain by DVS above 85% RH ([3]; above 85% RH): 2.7% |
| COc1cc(CCN)c(OC)cc1Br.O=C(O)C(O)C(O)C(=O)O [2C-B tartrate, 4-bromo-2,5-dimethoxyphenethylamine (2C-B) tartrate] | – | – | – | – | – | – | – | – | – | – | – | – | – | – | – | – | – | – | – | – | XRPD result after slurry ([4]; ACN, 50° C., 9 days): Tartrate (Form 1); XRPD result after slurry ([4]; DMF/acetone 50/50, RT): Tartrate (Form 1); XRPD result after slurry ([4]; EtOAc, 50° C., 9 days): Tartrate (Form 1); XRPD result after slurry ([4]; EtOAc/DMSO 71/29, RT): Tartrate (Form 1) +; XRPD result after slurry ([4]; EtOH, 50° C., 9 days): Tartrate (Form 1); XRPD result after slurry ([4]; EtOH/H2O 50/50, aw = 0.89, RT): Tartrate (Form 1); XRPD result after slurry ([4]; EtOH/H2O 80/20, aw = 0.70, RT): Tartrate (Form 1); XRPD result after slurry ([4]; EtOH/H2O 90/10, aw = 0.49, RT): Tartrate (Form 1); XRPD result after slurry ([4]; IPA, 50° C., 9 days): Tartrate (Form 1); XRPD result after slurry ([4]; IPA/H2O 70/30, aw = 0.94, RT): Tartrate (Form 1); XRPD result after slurry ([4]; MEK, 50° C., 9 days): Tartrate (Form 1); XRPD result after slurry ([4]; MeOH, RT): Tartrate (Form 1); XRPD result after slurry ([4]; MeOH/H2O 95/5, aw = 0.16, RT): Tartrate (Form 1); XRPD result after slurry ([4]; THF/H2O 50/50, aw = 1.00, 5° C.): Tartrate (Form 1); XRPD result after slurry ([4]; acetone/H2O 50/50, aw = 0.91, 5° C.): Tartrate (Form 1) |
| COc1cc(CCN)c(OC)cc1Br.O=S(=O)(O)c1ccccc1 [Besylate (Form 1), 2C-B besylate] | – | – | Slightly | – | Did not deliquesce | not observed | slightly hygroscopic | 0.7% | 0.2 mol | Consistent with Besylate (Form 1) | – | – | does not undergo form conversion | – | – | – | – | 5-95% RH: 0.7% | 95-5% RH: 0.7% loss | 5-95% RH: 0.7% gain | – |
| COc1cc(CCN)c(OC)cc1Br.O=C(O)CC(O)(CC(=O)O)C(=O)O [Citrate (Form 2), 2C-B Citrate] | – | – | Slightly | – | Did not deliquesce | not observed | slightly hygroscopic | 0.5% | 0.1 mol | Consistent with Citrate (Form 2) | – | – | form change does not occur | – | – | – | – | 5-95% RH: 0.5% | 95-5% RH: 0.5% loss | 5-95% RH: 0.5% gain | – |
| COc1cc(CCN)c(OC)cc1Br.O=C(O)c1cc(O)ccc1O [Gentisate, 2C-B gentisate] | – | – | Non-hygroscopic; | 0.20% | Did not deliquesce | not observed; also recorded: does not deliquesce | non-hygroscopic | 0.2% | 0.05 mol | Crystalline, consistent | – | – | form change does not occur | – | – | – | – | 5-95% RH: 0.2% | 95-5% RH: 0.2% loss | 5-95% RH: 0.2% gain | – |
| COc1cc(CCN)c(OC)cc1Br.CS(=O)(=O)O [Mesylate, 2C-B mesylate] | RH: 2.7% | RH: 4.5% gain | Hygroscopic; <85% | – | Did not deliquesce | not observed | hygroscopic | 7.2% | approximately 1.5 moles | Consistent with Mesylate | 85-5% RH: 3.0% loss | 95-85% RH: 4.4% loss | form change is not apparent by XRPD | Total loss: 7.4% | 5-85% RH: 2.7% gain | 85-95% RH: 4.5% gain | Total gain: 7.2% | – | – | – | – |
| COc1cc(CCN)c(OC)cc1Br.O=S(=O)(O)O [Sulfate, 2C-B sulfate] | RH: 0.8% | RH: 1.4% | Slightly | 2.2% | Did not deliquesce | not observed | slightly hygroscopic | 2.2% | approximately 0.5 moles | Consistent with Sulfate | 85-5% RH: 0.8% loss | 95-85% RH: 1.3% loss | form change does not occur | Total loss: 2.1% | 5-85% RH: 0.8% gain | 85-95% RH: 1.4% gain | Total gain: 2.2% | – | – | – | Water uptake (5-85% RH) % [1]: 0.8%; Water uptake (85-95% RH) % [1]: (5-85), 1.4 (85-95) % |
| COc1cc(CCN)c(OC)cc1Br.O=C(O)C(O)C(O)C(=O)O [Tartrate (Form 1), 4-bromo-2,5-dimethoxyphenethylamine (2C-B) tartrate] | – | – | Non-hygroscopic; | 0.1% | Did not deliquesce | not observed; also recorded: does not deliquesce | non-hygroscopic | 0.1% | – | Crystalline, consistent | – | – | Form change does not occur | – | – | – | – | 5-95% RH: 0.1% | 95-5% RH: 0.1% loss | 5-95% RH: 0.1% gain | – |
